Measurements published in US4939142A, “Substituted styrene derivatives” (priority 1989, dated 1990).

Key:
[1] = test system: experimental coronary insufficiency induced by vasopressine; experiment: Antianginal effect on rats, vasopressine-induced coronary insufficiency, T-wave (Nieschultz); format: in vivo, male rats; settings: Table IX, dose 2 mg/kg, vasopressine 1 IU/kg i.v.
Experimental: The test is carried out on male rats weighing 180-220 g. The animals are narcotized with the aid of chloralose urethane (70-700 mg/kg i.p.). ECG is registered by means of needle electrodes in standard II output. Antianginal effect is tested according to the method of Nieschultz. Experimental coronary insufficiency is induced by administering vasopressine (1 IU/kg i.v.) on 10-12 animals for each dose. The magnitude of the T-wave before and after the administration of vasopressine is measured in the treated and control groups.

[2] = test system: tetrabenazine ptosis; experiment: Tetrabenazin ptosis antagonism (Hoffmeister et al.); format: in vivo; settings: Table III
Experimental: The test is carried out by the method of Hoffmeister et al. adapted to mice. Groups consisting of 10-20 animals are treated orally with each dose of the test compound. The control group is treated orally with the carrier. Thirty minutes later a 50 mg/kg i.p. tetrabenazine dose is administered, whereupon after 30, 60, 90 and 120 minutes the animals with closed eye-lids are counted in each group.
On the basis of all measurements an average ptosis is calculated for each group and expressed as the percentile deviation (inhibition) from the control group. On the basis of the data thus obtained ED50 values are calculated.
[Hoffmeister, F., Wuttke, W., and Kroneberg, G.: Arzneim. Forsch. (Drug.

[3] = in vivo; settings: mouse, in vivo, po
Experimental: (§1) Male and female white mice (CFLP strain, 18-22 g) are used, 10 animals per dose. The test compounds are administered orally in a volume of 20 ml/kg. After administration the mice are observed for a period of 7 days. The animals are kept in plastic boxes, on wood litter, at room temperature. The animals receive standard mouse fodder and tap water ad libitum.

[4] = test system: motility; experiment: animal or person; format: in vivo
Experimental: The test is accomplished according to the method of Borsy et al. in a 10-channel Dews system equipment, whereby 3 mice are used per channel. The test compound or the carrier, respectively, is administered orally, and one hour after the said treatment the animals are placed into the apparatus and the number of the interruptions of infrared radiation is registered for 30 minutes.
The results are summarized in Table II and documented by means of suitable statistics for each experiment.
[J. Borsy, E. Csanyi, I. Lazar: Arch. Int. Pharmacodyn. 124, 1 (1960)].

[5] = test system: mice; experiment: in vivo; settings: oral, mice, 10080 min
Experimental: as §1

[6] = test system: hexobarbital narcosis; experiment: Hexobarbital narcosis potentiating effect
Experimental: The test is carried out on white mice. Groups consisting of six mice are used for each dose and test compound. The test compound is administered orally and an hour after this treatment narcosis is induced by means of a 40 mg/kg i.v. dose of hexobarbital. The control group receives carrier instead of the test compound.
Those mice are considered to be having a positive reaction which show a narcosis time at least 2.5 times longer than that of the control group. The ED50 values thus transformed are calculated.

[7] = test system: ulcus secretion; experiment: animal or person; format: in vivo
Experimental: The test is carried out according to the method of Nakamura on rats (Wistar strain) weighing 150-230 g and fasted for 48 hours. Each animal group consists of 4 male and 4 female rats. On the day of the experiment the pylorus of the animals is bound and the corresponding dose of the test compound is administered orally immidiately after operation. The animals are killed with ether 5 hours after the operation, their stomach is removed, cut along the large curve and placed on plastic plates.

[8] = test system: pentetrazole spasm; experiment: Inhibition of pentetrazol spasm on mice
Experimental: The modified method of Benziger and Hane is used on white mice. Groups consisting of 6 animals are used for each dose. […] The test compounds are administered orally one hour before the treatment with pentetrazole; in the control group the animals obtain the carrier orally at the same points of time.
The therapeutical index data disclosed in the above Tables are calculated by means of the following equation: [formula]

Compound: CC1(C)CC(/C=C/c2cccc(Cl)c2)=CC(=N/OCCN2CCOCC2)/C1 [Example 28, 5,5-Dimethyl-3-(E)-[(3'-chloro-phenyl)-vinyl]-1-(E)-(N-morpholino-ethoxyimino)-2-cyclohexene]
- Inhibition % [1]: -31%

Compound: CC1(C)CC(/C=C/c2ccc(Cl)cc2)=CC(=N/OCCCN2CCN(Cc3ccccc3)CC2)/C1 [Example 20, 5,5-Dimethyl-3-(E)-[(4'-chloro-phenyl)-vinyl]-1-(E)-(4"-phenyl-methyl-1"-piperazinyl-propoxyimino)-2-cyclohexene]
- ED50 ([2]; Mus musculus, oral, 30 min before tetrabenazin 50 mg/kg i.p.): 8.5 mg/kg
- Therapeutical index ([2]; tetrabenazin ptosis, LD50/ED50): 235.3
- Inhibition % [1]: -54.4%
- LD50 at 168 h [3]: 2000 mg/kg

Compound: COc1cccc(/C=C/C2=CC(=N/OCCCN3CCOCC3)/CC(C)(C)C2)c1 [Example 30, 5,5-Dimethyl-3-(E)-[(3'-methoxy-phenyl)-vinyl]-1-(E)-(N-morpholino-propoxyimino)-2-cyclohexene]
- Inhibition % [1]: -45%
- ED50 ([4]; Mus musculus, po): ~200 mg/kg
- Therapeutical index ([4]; Table II, motility inhibition, LD50/ED50): > 10.0
- LD50 at 168 h [3]: > 2000 mg/kg
- LD50 ([5]; Table I): > 2000 mg/kg
- LD50 ([5]; Table II): > 2000 mg/kg
- ED50 ([6]; Mus musculus, po): 21.5 mg/kg
- Therapeutical index LD50 /ED50 ([6]; Table I, hexobarbital narcosis): > 93.0
- ED50 ([7]; Rattus norvegicus, po, 5 h): ~150 mg/kg
- Therapeutical index ([7]; Table X, ulcus secretion, LD50/ED50): above 13.3

Compound: COc1ccccc1/C=C/C1=CC(=N/OCCN2CCCCC2)/CC(C)(C)C1 [Example 33, 5,5-Dimethyl-3-(E)-[(2'-methoxy-phenyl)-vinyl]-1-(E)-(N-piperidinyl-ethoxyimino)-cyclohexene]
- Inhibition % [1]: -47.1%
- ED50 ([8]; Mus musculus, po): 63 mg/kg
- Therapeutical index ([8]; Table V, pentetrazole spasm, LD50/ED50): > 15.9
- LD50 at 168 h [3]: > 1000 mg/kg
